Laboratory results from patent US6599924B1, “2-hetaryl-3,4-dihydro-2H-pyrrole derivatives” (Bayer Aktiengesellschaft, priority 1998, dated 2003).

Assay: not given
Details: not given

For `Oc1ccc(C2CCC(c3sccc3Cl)=N2)cc1` (stereo not shown) [Example I-706, 2-(5-(4-Hydroxyphenyl)-Δ^2-pyrrolin-2-yl)-3-chlorothiophene], which melting point is on record?
The melting point was 146 °C.

With `CC(C)(C)c1ccc(COc2ccc(C3CCC(c4sccc4Cl)=N3)cc2)cc1` (stereo not shown) [Example I-718, 3-Chloro-2-[5-(4-(4-tert-butylbenzyloxy)-phenyl)-Δ^2-pyrrolin-2-yl]-thiophene] as the compound, how does the melting point read?
The melting point was 102 °C.

Assay: physchem
Details: pH 7.5

For `c1ccc(C2CCC(c3cccnc3)=N2)cc1` (stereo not shown) [Example I-678], which logP is on record?
Its logP is 2.01.

Assay: not given
Details: not given
Remark: another data set of the same source

For “1-dimethylamino-5-phenylpyrrolidone-2 [G (I′-678)]”, which “logp (pH=7.5)” value is on record?
The value was 1.52.

Assay: log P determination
Details: not given

For `C=CCOc1ccc(C2CCC(c3sccc3Cl)=N2)cc1` (stereo not shown) [Example I-707], which logP is on record?
Its logP is 2.29.

Which logP does the source give for `FC(F)(F)Oc1ccc(Oc2ccc(C3CCC(c4sccc4Cl)=N3)cc2)cc1` (stereo not shown) [Example I-710] here?
Its logP is 4.5.

For `C#CCOc1ccc(C2CCC(c3sccc3Cl)=N2)cc1` (stereo not shown) [Example I-720], which logP is on record?
Its logP is 1.97.

Same assay, conditions: pH 2.3

For `Fc1ccsc1C1=NC(c2ccc(-c3ccc(OC(F)(F)F)cc3)cc2)CC1` (stereo not shown) [Example I-868, 5-(3-fluorothien-2-yl)-3,4-dihydro-2-[4′-trifluoromethoxy]-[1,1′-biphenyl]-4-yl-2H-pyrrole], which logP is on record?
Its logP is 3.18.

Which logP does the source give for `CC(C)(C)OC(=O)NC(CCC(=O)c1sccc1F)c1ccc(-c2ccc(OC(F)(F)F)cc2)cc1` (stereo not shown) [II-868] here?
The logP was 5.05.

Which logP does the source give for `FC(F)(F)Oc1ccc(-c2ccc(C3CCC(c4sccc4Cl)=N3)cc2)cc1` (stereo not shown) [Example I-195] here?
The logP was 4.67.

For `FC(F)(F)Oc1ccc(-c2ccc(C3CCC(c4cccs4)=N3)cc2)cc1` (stereo not shown) [Example I-7], which logP is on record?
The logP was 2.45.

Which logP does the source give for `FC(F)(F)Oc1ccc(Oc2ccc(C3CCC(c4sccc4Cl)=N3)cc2)cc1` (stereo not shown) [Example I-708, 2-(5-(4-Trifluoromethoxyphenoxy-phenyl)-Δ^2-pyrrolin-2-yl)-3-chlorothiophene] here?
Its logP is 4.5.

With `FC(F)(F)Oc1ccc(-c2ccc(C3CCC(c4ccsc4)=N3)cc2)cc1` (stereo not shown) [Example I-430] as the compound, how does the logP read?
Its logP is 2.44.

With `FC(F)(F)Oc1ccc(-c2ccc(C3CCC(c4ccc(Cl)s4)=N3)cc2)cc1` (stereo not shown) [Example I-148] as the compound, how does the logP read?
The logP was 4.21.

With `FC(F)(F)Oc1ccc(-c2ccc(C3CCC(c4ncccc4C(F)(F)F)=N3)cc2)cc1` (stereo not shown) [Example I-336] as the compound, how does the logP read?
Its logP is 5.06.

For `FC(F)(F)Oc1ccc(-c2ccc(C3CCC(c4ccc(Br)s4)=N3)cc2)cc1` (stereo not shown) [Example I-618], which logP is on record?
The logP was 4.73.
